The assay concerns the target Pyruvate dehydrogenase kinase 3 (PDK3) (Homo sapiens, UniProt Q15120). The assay can be described thus: intrinsic Trp fluorescence quenching of purified PDK3. Type of assay: binding.

From paper PMC11238318 (ACS Omega, 2024) come the findings set out here.

The structures appear in SMILES notation.

Sequence of Pyruvate dehydrogenase kinase 3 (PDK3) (Q15120 whole entry): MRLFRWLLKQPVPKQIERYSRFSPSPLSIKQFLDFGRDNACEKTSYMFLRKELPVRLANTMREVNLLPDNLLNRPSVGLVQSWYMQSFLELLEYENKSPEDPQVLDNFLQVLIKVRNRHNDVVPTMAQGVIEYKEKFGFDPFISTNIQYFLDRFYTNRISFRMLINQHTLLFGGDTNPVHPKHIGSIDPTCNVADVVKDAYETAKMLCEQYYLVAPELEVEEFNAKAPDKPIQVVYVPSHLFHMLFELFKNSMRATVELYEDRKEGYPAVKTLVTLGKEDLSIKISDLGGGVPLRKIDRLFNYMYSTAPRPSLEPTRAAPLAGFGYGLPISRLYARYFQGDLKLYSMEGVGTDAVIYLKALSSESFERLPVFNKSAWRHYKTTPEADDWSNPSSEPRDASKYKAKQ

In turn, `O=c1c(O)c(-c2cc(O)c(O)c(O)c2)oc2cc(O)cc(O)c12` [MT, Myricetin] showed a Kd of 8.77 µM.

A word on the Kd: it is the free concentration of one partner at which half of the binding sites on the other are occupied at equilibrium, for simple one-to-one binding.
